Results on one compound are retold here after US12083156B1, “Extracts derived from laser-irradiated rhizome of curcuma longa having enhanced antimicrobial activity” (KING FAISAL UNIVERSITY, priority 2023, dated 2024).

What all share (test): Antimicrobial bioassay, inhibition zone
Holding throughout (format): cell-based

For one test, the system named is Bacillus sp. The note with it: extracts 5 mg/L, Imipenem 10 μg, mean of nine replicate plates. How it is done:
(§1) Each of the mean measurements was obtained from the average of nine replicate plates. The test solution positive control was 10 μg Imipenem. Three Curcuma longa extracts (5 mg/L) were prepared from ethanolic rhizome extracts as well as the control.

Another test has as its system E. coli. The note with it: Escherichia coli; extracts 5 mg/L; Imipenem 10 μg; mean of nine replicate plates. As to the method:
as §1

For a further test, the system named is S. aureus. The note with it: Staphylococcus aureus; extracts 5 mg/L; Imipenem 10 μg; mean of nine replicate plates. As to the method: as §1
A further test deals with MRSA. The note with it: Staphylococcus aureus, extracts 5 mg/L, Imipenem 10 μg, mean of nine replicate plates. How it is done:
as §1

Regarding `C[C@@H](O)[C@H]1C(=O)N2C(C(=O)O)=C(SCCN=CN)C[C@H]12` [Imipenem], the zone of inhibition at 10 µg/disc was 19 mm in the test on Bacillus sp., 20 mm in the test with E. coli, 18 mm in the test with S. aureus and 25 mm in the test with MRSA.
